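In this assay, cells in 96-well plates receive the compound at five concentrations for 48 hours. Endpoints are linearly interpolated between the surrounding concentrations. At the GI50, growth is halved. TGI: concentration producing complete growth inhibition.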
What was measured:
Assay in all cases: NCI tumour cell line growth inhibition, 48 h
ACHN renal = system: ACHN renal
CCRF-CEM leukemia = system: CCRF-CEM leukemia
HOP-62 NSCLC = system: HOP-62 NSCLC
HOP-92 NSCLC = system: HOP-92 NSCLC
K-562 leukemia = system: K-562 leukemia
KM12 colon = system: KM12 colon
MCF7 breast = system: MCF7 breast
MOLT-4 leukemia = system: MOLT-4 leukemia
SF-268 CNS = system: SF-268 CNS
UACC-62 melanoma = system: UACC-62 melanoma

Row | SMILES | GI50 (ACHN renal) [µM] | TGI (ACHN renal) [µM] | GI50 (CCRF-CEM leukemia) [µM] | TGI (CCRF-CEM leukemia) [µM] | GI50 (HOP-62 NSCLC) [µM] | TGI (HOP-62 NSCLC) [µM] | GI50 (HOP-92 NSCLC) [µM] | TGI (HOP-92 NSCLC) [µM] | GI50 (K-562 leukemia) [µM] | TGI (K-562 leukemia) [µM] | GI50 (KM12 colon) [µM] | TGI (KM12 colon) [µM] | GI50 (MCF7 breast) [µM] | TGI (MCF7 breast) [µM] | GI50 (MOLT-4 leukemia) [µM] | TGI (MOLT-4 leukemia) [µM] | GI50 (SF-268 CNS) [µM] | TGI (SF-268 CNS) [µM] | GI50 (UACC-62 melanoma) [µM] | TGI (UACC-62 melanoma) [µM]
1 | O=C1C=C(N2CC2)c2ccccc2C1=O | 1.58 | 2.96 | 2.32 | 6.23 | 1.74 | 3.13 | 1.63 | 3.41 | 2.6 | 5.66 | 1.78 | 3.27 | 1.48 | 3.76 | 1.99 | 5.77 | 1.79 | 3.71 | 1.79 | 3.25
2 | COc1ccc2nc(-c3ccccc3)cc(Nc3ccc(/C(C)=N/O)cc3)c2c1 | 14.1 | 29.3 | 3.48 | > 100 | 2.14 | 5.06 | 0.821 | 22.5 | 2.2 | > 100 | 3.74 | > 100 | 3.35 | > 19.7 | 3.73 | > 100 | 3.39 | > 23 | 2.1 | 4.65
3 | N/C(=N\OC(=O)NC(Cl)=C(Cl)Cl)c1cc(C(F)(F)F)cc(C(F)(F)F)c1 |  | 27.4 |  | 32.2 |  | 34.2 |  | 35.1 |  |  |  | 31.1 |  | > 100 |  | 29.6 |  | 45.6 |  | 
4 | COc1ccc(/C=C/c2nc(N3CCOCC3)c3cc(F)c(F)cc3n2)cc1OC | 4.35 | > 100 | 4.7 | > 100 | 50.7 | > 100 | 4.13 | 87.2 |  |  | 4.59 | > 100 | 2.54 | > 100 | 4.11 | > 100 | 9.85 | > 100 | 3.55 | > 100
5 | COc1ccc(-c2nnc3n(C)c(=O)c4ccccc4n23)cc1O | 1.15 | > 100 | 1.81 | > 100 | 0.176 | 19.8 | 1.31 | 61.5 | 0.135 | > 100 | 0.152 | > 100 | 0.13 | > 100 | 1.17 | > 100 | 5.29 | > 100 | 0.441 | 27.1
6 | COc1ccc(N2CCN(CC(=O)N3CCN(c4nnc(-c5ccccc5)c(-c5ccccc5)n4)CC3)CC2)cc1 | 7.94 | > 100 | 6.61 | > 100 | > 67.4 | > 100 | 7.13 | > 94.4 | 5.6 | > 100 | 5.67 | > 100 | 4.44 | 34.2 | 4.79 | > 71 | 9.16 | > 100 |  | 
7 | COc1cc2c(cc1OCCCCCCNC(=O)c1cc3ccccc3[nH]1)N=CC1CCCN1C2=O (stereo not drawn) | 35.2 | > 100 | 27.3 | > 100 | 50.2 | > 100 | 25.3 | > 100 | 30.5 | > 100 | 34.8 | > 100 | 27.3 | > 100 | 31.6 | > 100 | 6.8 | 26 | 39.5 | > 100
8 | c1ccc(-c2n(Cc3ccc4ccccc4n3)c3ccccc3[n+]2Cc2ccc3ccccc3n2)cc1 | 1.41 | 3.01 | 0.365 | 2.81 | 0.446 | 1.95 | 0.143 | 0.563 | 0.141 | 1.34 | 0.344 | 1.3 | 0.274 | 1.2 | 0.443 | 2.09 | 0.333 | 1.35 | 0.306 | 1.24
9 | Cc1cc(C)cc(Nc2nccc(-c3c(-c4ccc(F)cc4)ncn3C3CCNCC3)n2)c1 | 0.46 | 1.79 | 1.92 | 5.97 | 2.04 | 3.95 | 1.34 | 3.53 | 1.03 | 3.59 | 1.74 | 3.57 | 0.566 | 2.09 | 2.03 | 5.32 | 1.48 | 3.96 | 1.55 | 2.95
10 | COc1cc(C(=O)/C=C/c2c(-c3ccc(F)cc3)nc3sccn23)cc(OC)c1OC | 2.99 | 13.2 | 2.68 | > 27.3 | 1.96 | 5.73 | 1.7 |  | 1.85 | 6.64 | 2.24 | 6.27 | 1.9 | 7.88 | 2.16 | 6.35 | 2.37 | 7.36 | 2.28 | 13.9
11 | COc1ccc(C(=O)Nc2ncc(Cc3ccc(F)cc3)s2)cc1 | 0.0664 | > 95 | 0.0446 | > 100 | 0.148 | > 56.5 | 1.45 | 76 | 0.0377 | > 100 | 0.0408 | 6.2 | 0.0385 | > 100 | 0.0574 | > 100 | 0.481 | > 100 | 0.0469 | > 94.4
12 | O=C(Cc1ccc(/C=C/C(=O)c2ncc[nH]2)cc1)Nc1ccc(Br)cc1 | 2.72 | 5.25 | 0.759 | > 16.7 | 2.49 | 5.73 | 6.74 | > 16.7 | 0.745 | > 16.7 | 0.864 | 3.13 | 0.569 | > 16.7 | 4.02 | > 16.7 | 1.83 | > 16.7 | 2.85 | 6.11
13 | N#Cc1cc2cc3c4c(c2oc1=O)CCCN4CCC3 |  | > 100 |  | > 100 |  | > 100 |  | > 100 |  | > 100 |  | > 100 |  | > 100 |  | > 100 |  | > 100 |  | > 100
14 | CC(=O)NNC(=O)c1nn(-c2ccc(Cl)cc2)cc1OC(C)=O | 15.3 | > 66.6 | 10.2 | > 100 | 27.2 | > 100 | 38.7 | > 100 | 32.9 | > 100 | 43.7 | > 100 | > 37 | > 78.4 | > 21 | > 100 | 8.85 | > 71.3 | 19.8 | > 65.3

— PubChem BioAssay (NCI)
